# Test results published in patent US20130160151A1, “TRANSGENIC ANIMAL AS A MODEL FOR IDENTIFYING ADULT STEM CELLS, AND USES THEREOF” (Universite Pierre et Marie Curie (PARIS 6), priority 2010, published 2013).
# Entries after “also recorded” stand apart in the source; their conditions may differ.
# Columns and labels:
# skin stem cells = assay: Screening feasibility: number of blue clones per well of skin stem cells treated with factors; format: cell-based, mouse; conditions: skin stem cells from 7 week-old Pw1nlacZ mice, 2 cells/μl, factors added after 3 days in culture, a week treatment, duplicates
# Method: FIG. 9 is a graph showing the number of clones of skin stem cells after a week treatment with various factors (EGF, BMP2, BMP4, Activin A).
# Fluorescence-activated cell sorting has been performed, dorsal skin from 7 week-old Pw1^nlacZ mice (n=3-5) were collected and cell preparation was obtained. For detection of nuclear β-galactosidase activity, a fluorescein di-β-D-galactopyranoside (FDG) staining kit (Invitrogen) was used according to manufacturer's instructions. Cells were then plated on 24 or 96 wells at density of 2 cells/μl. The cells were treated with 4 different factors after 3 days in culture: • EGF, Human recombinant protein from R&D system • BMP2, Human recombinant protein from Humanzyme • BMP4, Human recombinant protein from Humanzyme • Activin A, Human recombinant protein from Humanzyme
# The analysis of the effect of different factors has been done using a simple readout: counting the number of blue clones per well. […] This experiment has been done in duplicates.
# β-gal positive cells = assay: In vitro culture of FAC-sorted blue (β-gal positive) cells with or without EGF; format: cell-based; conditions: medium containing EGF vs without EGF; FAC-sorted blue cells of the transgenic mouse
# Method: FIGS. 6A and 6B show in vitro culture of β-gal positive cells after FAC sorting in absence (6A) or in presence (6B) of EGF.
# The inventors isolated cells from a transgenic mouse as obtained in Example 1, and isolated them by FAC sorting. Only the blue cells were cultured in vitro.
# Then for proof of concept, the cells were contacted with human recombinant EGF or without EGF. The growth factor was tested for its ability to keep the cells blue over time.
substance,measurement,setting,value
EGF: Human recombinant protein from R&D system,number of blue clones per well (cell growth),skin stem cells,allows the cells to grow
same,number of blue cells per clone,β-gal positive cells,greater; also recorded: higher
same,number of blue clones,β-gal positive cells,greater; also recorded: higher
